Reference: ChEMBL document CHEMBL1201862, “PubChem BioAssay data set” (2004)
Active and inactive are the calls of the source.

Legend:
[1] = cells; type: functional
[2] = C. albicans growth with fluconazole, confirmation, fluorescence, retest (AID 2467); type: functional, cell-based
[3] = NIH-3T3 fibroblast cytotoxicity, dose response, cytotoxicity control, cell-based, fluorescence, Alamar Blue, secondary assay (AID 2327); type: functional;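 note: NIH-3T3 mouse fibroblasts cultured with fluconazole at 8 µg/mL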
[4] = target: T1, Calpain-2 catalytic subunit (Sus scrofa, UniProt P43367); experiment: pig calpain II inhibitor potency, dose response, biochemical, fluorogenic peptide substrate (AID 1420); type: functional
T1 sequence (P43367 whole entry): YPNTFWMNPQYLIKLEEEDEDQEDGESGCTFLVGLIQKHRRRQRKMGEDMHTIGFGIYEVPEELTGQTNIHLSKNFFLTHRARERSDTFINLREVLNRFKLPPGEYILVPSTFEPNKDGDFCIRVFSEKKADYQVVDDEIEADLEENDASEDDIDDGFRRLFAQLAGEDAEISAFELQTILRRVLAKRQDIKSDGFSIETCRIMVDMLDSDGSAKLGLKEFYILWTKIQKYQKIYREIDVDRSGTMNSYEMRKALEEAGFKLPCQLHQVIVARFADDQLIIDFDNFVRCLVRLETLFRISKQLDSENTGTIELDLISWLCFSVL

[5] = Shn3 3'UTR reporter inhibitors, dose response, cell-based, Clone20 osteoblasts, firefly luciferase, cherry-picked (AID 624132); type: functional;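 note: firefly luciferase luminescence from reporter carrying the Shn3 3'UTR in osteoblasts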
[6] = HEp-2 cell cytotoxicity, dose response, cytotoxicity control for RSV inhibitor project, HTS (AID 2410); type: functional; details: human respiratory syncytial virus
[7] = inhibitors of intracellular T. cruzi replication, confirmation, NIH3T3 host cells, beta-gal luminescence (AID 2044); type: functional, cell-based;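 note: intracellular parasites grown in NIH/3T3 mouse fibroblasts as host cells; luminescent beta-galactosidase reporter signal from transgenic T. cruzi replicating inside host cells; inhibitors lower the luminescence signal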
[8] = target: Paired box protein Pax-8 (Homo sapiens, UniProt Q06710); experiment: inhibitors of PAX8-driven TPO luciferase reporter, dose response, RMG-I cells, cherry-pick (AID 687027); type: functional, cell-based;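 note: luciferase reporter driven by Pax8 target thyroperoxidase promoter measured by SteadyGlo luminescence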
[9] = cytotoxicity toward NIH3T3 fibroblasts, dose response, counter-screen, cell-based, ATP luminescence, mouse fibroblasts (AID 2010); type: functional;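 note: cells exposed to compound for about 90 hours before reading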
[10] = target: T2, Rac GTPase-activating protein 1 (Homo sapiens, UniProt Q9H0H5); experiment: MgcRacGAP GTPase-activating activity inhibitors, confirmation, biochemical, ADP Hunter fluorescence, primary and confirmatory (AID 624330); type: functional
T2 sequence (Q9H0H5 whole entry): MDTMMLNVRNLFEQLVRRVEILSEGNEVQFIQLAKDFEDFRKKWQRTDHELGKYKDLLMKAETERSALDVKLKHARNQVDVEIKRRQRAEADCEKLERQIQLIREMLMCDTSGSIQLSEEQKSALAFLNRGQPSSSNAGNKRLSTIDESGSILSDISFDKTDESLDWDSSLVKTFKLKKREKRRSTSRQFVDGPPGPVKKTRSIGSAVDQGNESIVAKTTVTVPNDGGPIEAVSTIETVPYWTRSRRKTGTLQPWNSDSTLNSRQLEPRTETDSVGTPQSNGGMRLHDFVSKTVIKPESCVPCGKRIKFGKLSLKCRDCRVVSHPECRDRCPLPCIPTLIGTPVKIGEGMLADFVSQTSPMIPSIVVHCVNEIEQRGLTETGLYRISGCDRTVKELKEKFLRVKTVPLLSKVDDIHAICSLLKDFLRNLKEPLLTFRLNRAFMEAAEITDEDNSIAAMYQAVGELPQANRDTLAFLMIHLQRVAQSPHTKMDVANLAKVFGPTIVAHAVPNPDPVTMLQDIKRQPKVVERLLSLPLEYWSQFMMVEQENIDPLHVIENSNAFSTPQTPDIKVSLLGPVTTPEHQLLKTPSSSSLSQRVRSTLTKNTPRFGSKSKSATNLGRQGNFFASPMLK

[11] = inhibitors of SNCA 5'UTR-driven reporter translation, confirmation, H4 neuroglioma cells, luminescence (AID 1988); type: functional, cell-based
[12] = inhibitors of firefly luciferase expression or activity, dose response, H4 neuroglioma cells, luminescence (AID 1990); type: functional, cell-based
[13] = Luminescence Cell-Based Dose Response HTS to Identify Inhibitors of 5'UTR Stem-Loop Driven Prion Protein mRNA Translation in H4 Neuroglioblastoma Cells. [Related pubchem assays: 1827 (Project Summary), 1813 (Primary HTS)]; type: functional
[14] = Luminescence Cell-Based Dose Confirmation HTS to Identify Inhibitors of Platelet Dense Granule Release. [Related pubchem assays: 1663 (Primary HTS), 1678 (Summary of Project)]; type: functional
[15] = test system: HEK293; experiment: inhibitors of LMP1-driven NF-kB reporter, dose response, cell-based, HEK293, luciferase, cherry-pick (AID 588343); type: functional; details: Homo sapiens
[16] = target: T3, Protein skinhead-1 (Caenorhabditis elegans, UniProt P34707); type: functional
T3 sequence (P34707 whole entry): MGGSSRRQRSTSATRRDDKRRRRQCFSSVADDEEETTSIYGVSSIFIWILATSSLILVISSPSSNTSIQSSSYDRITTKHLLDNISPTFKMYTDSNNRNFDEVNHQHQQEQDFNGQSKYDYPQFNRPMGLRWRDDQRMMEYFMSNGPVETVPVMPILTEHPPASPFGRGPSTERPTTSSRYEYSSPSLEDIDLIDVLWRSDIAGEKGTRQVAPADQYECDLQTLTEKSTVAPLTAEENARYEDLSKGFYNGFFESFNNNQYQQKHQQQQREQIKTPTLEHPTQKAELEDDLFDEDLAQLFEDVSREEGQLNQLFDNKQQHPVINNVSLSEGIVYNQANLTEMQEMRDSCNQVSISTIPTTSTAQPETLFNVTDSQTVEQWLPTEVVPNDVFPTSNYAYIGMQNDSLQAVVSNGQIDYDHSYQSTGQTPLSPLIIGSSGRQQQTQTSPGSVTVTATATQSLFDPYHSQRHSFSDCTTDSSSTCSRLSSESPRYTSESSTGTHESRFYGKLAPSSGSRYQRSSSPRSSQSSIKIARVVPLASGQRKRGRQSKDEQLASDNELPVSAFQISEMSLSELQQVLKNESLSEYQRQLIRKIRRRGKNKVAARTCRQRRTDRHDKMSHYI

[17] = target: Luciferin 4-monooxygenase (Photinus pyralis, UniProt P08659); experiment: firefly luciferase enzyme inhibitors, dose response, biochemical, luminescence (AID 1891)
[18] = target: T4, Ubiquitin-conjugating enzyme E2 N (Homo sapiens, UniProt P61088); type: functional;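 note: Dose-response confirmation in a TR-FRET assay detecting UBC13-driven polyubiquitin chain formation, inhibition measured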
T4 sequence (P61088 whole entry): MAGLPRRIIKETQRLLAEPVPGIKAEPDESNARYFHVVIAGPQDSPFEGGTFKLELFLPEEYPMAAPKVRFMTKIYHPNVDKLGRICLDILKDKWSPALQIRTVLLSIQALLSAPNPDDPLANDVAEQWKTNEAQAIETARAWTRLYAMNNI

[19] = target: T5, Streptokinase A (Streptococcus pyogenes serotype M1, UniProt P10520); experiment: S. pyogenes streptokinase expression inhibitors, potency, dose response, plasminogen activation absorbance, OD405 (AID 1914); type: functional, Streptococcus pyogenes M1 GAS;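 note: secreted streptokinase activity via plasminogen activation per viability signal from cell pellet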
T5 sequence (P10520 whole entry): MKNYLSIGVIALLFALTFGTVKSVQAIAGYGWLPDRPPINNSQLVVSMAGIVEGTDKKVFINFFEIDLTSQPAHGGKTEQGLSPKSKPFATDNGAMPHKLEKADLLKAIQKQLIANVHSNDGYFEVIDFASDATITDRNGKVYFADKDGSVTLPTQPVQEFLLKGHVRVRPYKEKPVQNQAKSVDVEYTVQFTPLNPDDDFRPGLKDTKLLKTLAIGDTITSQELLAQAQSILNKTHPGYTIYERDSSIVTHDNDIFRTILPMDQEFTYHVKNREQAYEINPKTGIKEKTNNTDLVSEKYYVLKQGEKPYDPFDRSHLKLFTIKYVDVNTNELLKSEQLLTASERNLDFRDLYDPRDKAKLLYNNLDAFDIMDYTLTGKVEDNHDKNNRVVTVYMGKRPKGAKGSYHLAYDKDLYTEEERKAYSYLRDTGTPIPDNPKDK

[20] = test system: Streptococcus sp. 'group A'; experiment: growth inhibition of control SK(-) GAS strain, dose response, counter-screen for streptokinase expression inhibitor project, luminescence, kanamycin, BacTiterGlo, confirmation (AID 1900); type: functional, organism-based
[21] = test system: Streptococcus; experiment: Group A Streptococcus viability loss, dose response, counter-screen for streptokinase expression inhibitor project, luminescence, BacTiterGlo (AID 1915); type: functional, organism-based;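 note: potency for reduction of bacterial viability or growth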
[22] = target: T6, Heat shock factor protein 1 (Mus musculus, UniProt P38532); experiment: inhibition of MG132-induced HSE-luciferase signal, confirmation, cell-based, NIH3T3, luminescence, dose retest (AID 2382); type: functional;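 note: NIH3T3 fibroblasts with HSF1-driven luciferase reporter stressed by proteasome inhibitor MG132; luminescence from HSF1-driven luciferase expression after 8 hours of MG132 stress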
T6 sequence (P38532 whole entry): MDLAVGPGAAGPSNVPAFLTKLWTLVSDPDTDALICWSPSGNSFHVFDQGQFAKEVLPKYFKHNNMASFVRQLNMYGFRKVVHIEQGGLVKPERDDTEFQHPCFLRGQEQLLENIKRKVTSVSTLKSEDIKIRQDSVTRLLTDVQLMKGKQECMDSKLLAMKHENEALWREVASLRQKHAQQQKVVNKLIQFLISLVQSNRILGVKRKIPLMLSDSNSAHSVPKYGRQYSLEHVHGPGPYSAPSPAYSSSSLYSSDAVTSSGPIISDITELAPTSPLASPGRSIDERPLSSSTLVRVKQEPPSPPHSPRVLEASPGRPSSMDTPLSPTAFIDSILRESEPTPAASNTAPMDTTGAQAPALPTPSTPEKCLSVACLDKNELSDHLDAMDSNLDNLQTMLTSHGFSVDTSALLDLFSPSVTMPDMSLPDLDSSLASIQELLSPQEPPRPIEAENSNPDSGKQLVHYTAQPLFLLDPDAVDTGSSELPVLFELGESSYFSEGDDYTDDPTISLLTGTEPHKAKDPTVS

[23] = HepG2 cell cytotoxicity, dose response, cytotoxicity control for Shn3 inhibitor project, CellTiter-Glo, cherry-picked (AID 624134); type: functional, cell-based
[24] = control 3'UTR Renilla luciferase suppression, dose response, counter-screen for Shn3 inhibitor project, cell-based, Clone20-Shn3RL, cherry-picked (AID 624133); type: functional

Chain of Paired box protein Pax-8 (Q06710 whole entry): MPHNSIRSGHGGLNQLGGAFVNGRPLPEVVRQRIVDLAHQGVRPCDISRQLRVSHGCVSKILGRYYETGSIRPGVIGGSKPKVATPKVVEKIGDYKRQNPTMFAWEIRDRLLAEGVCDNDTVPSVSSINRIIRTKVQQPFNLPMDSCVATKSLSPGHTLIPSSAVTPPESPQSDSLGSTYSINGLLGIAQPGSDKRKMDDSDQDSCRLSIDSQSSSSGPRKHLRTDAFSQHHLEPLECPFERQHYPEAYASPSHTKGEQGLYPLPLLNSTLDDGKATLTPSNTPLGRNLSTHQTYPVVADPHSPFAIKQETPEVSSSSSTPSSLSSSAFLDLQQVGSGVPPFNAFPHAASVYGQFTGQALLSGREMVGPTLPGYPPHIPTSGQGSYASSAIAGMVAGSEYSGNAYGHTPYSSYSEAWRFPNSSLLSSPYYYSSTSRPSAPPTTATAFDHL
Chain of Luciferin 4-monooxygenase (P08659 whole entry): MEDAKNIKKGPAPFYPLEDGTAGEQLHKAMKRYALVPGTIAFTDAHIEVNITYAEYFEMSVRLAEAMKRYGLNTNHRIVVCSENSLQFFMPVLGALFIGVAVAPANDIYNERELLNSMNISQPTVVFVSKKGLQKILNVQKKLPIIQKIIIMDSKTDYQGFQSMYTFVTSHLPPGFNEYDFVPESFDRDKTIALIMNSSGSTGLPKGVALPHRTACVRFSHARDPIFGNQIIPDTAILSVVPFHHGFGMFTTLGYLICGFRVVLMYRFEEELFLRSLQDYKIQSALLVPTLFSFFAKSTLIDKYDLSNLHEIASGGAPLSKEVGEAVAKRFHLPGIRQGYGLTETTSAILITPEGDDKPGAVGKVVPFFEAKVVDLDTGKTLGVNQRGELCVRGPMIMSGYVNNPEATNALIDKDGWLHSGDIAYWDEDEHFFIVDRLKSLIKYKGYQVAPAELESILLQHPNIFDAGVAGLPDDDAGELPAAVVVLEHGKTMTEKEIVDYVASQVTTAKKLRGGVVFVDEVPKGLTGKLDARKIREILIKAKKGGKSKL

COc1ccccc1C1=Nn2c(nnc2C2CCCCC2)SC1
IC50 [1]: 12.1 µM (active)

Cc1ccc(NC(=S)NC(=O)C2CC2)cc1Cl
EC50 [2]: 3.32 µM (active) | EC50 [3]: > 160 µM (inactive)

CC(C)CCNc1nc2c(c(=O)n(Cc3cccc(F)c3)c(=O)n2C)n1C
IC50 [4]: 44.7 µM (not active)

CC(=O)N1CCOc2cc(S(=O)(=O)NCc3ccc(F)cc3)c(C)cc21
AC50 [5]: > 70 µM (inactive)

Cc1cccc(NC(=O)NC2CCCCCCC2)c1
EC50 [2]: > 38 µM (not active) | EC50 [3]: 24.8 µM (active)

COc1cc2c(cc1OC)CN(C(=O)c1ccc3[nH]c(C)c(C)c3c1)CC2
CC50 [6]: > 50 µM (active)

O=C(Nc1ccc(Cl)cc1)c1ccc(-n2cncn2)c([N+](=O)[O-])c1
CC50 [6]: 20.6 µM (active)

CC1=Nc2ncnn2C(c2cccnc2)/C1=C(\O)OC1CCCCC1 (configuration not stated)
EC50 [7]: 2.35 µM (active) | AC50 [8]: 36.1 µM (active) | EC50 [9]: > 60 µM (not active)

COc1ccc(Cl)cc1C(=O)NCc1ccc2c(c1)OCO2
CC50 [6]: 34.4 µM (active)

O=C(Oc1ccc(Cl)c2cccnc12)c1cccc([N+](=O)[O-])c1
EC50 [2]: > 38 µM (not active) | EC50 [3]: 19.9 µM (inconclusive)

CCCCC(=O)Nc1ncc([N+](=O)[O-])s1
EC50 [2]: 0.141 µM (active) | EC50 [3]: > 160 µM (inactive)

CN(/N=C/c1ccc(O)cc1O)c1nc(-c2ccccc2)cc(-c2ccccc2)n1
AC50 [8]: 26.9 µM (active)

CN(C)c1ccc(NC(=O)CCN2C(=O)c3cccc([N+](=O)[O-])c3C2=O)cc1
IC50 [10]: 86.5 µM (active)

CN(C1=NC(=O)C(CC(=O)Nc2ccc(Br)cc2)S1)c1ccc(O)cc1 (configuration not stated)
EC50 [11]: 23.8 µM (active) | EC50 [12]: 66.4 µM (active) | CC50 [6]: 36 µM (active) | EC50 [13]: > 120 µM (not active)

O=C(/C=C/Nc1ccc(Br)cc1F)c1ccccc1
EC50 [14]: 4.16 µM (active) | EC50 [11]: 4.27 µM (active) | AC50 [15]: 1.65 µM (active) | EC50 [13]: 9.38 µM (active) | IC50 [16]: > 100 µM (inactive) | EC50 [17]: 0.542 µM (active)

Cc1cccc(/N=C2/Sc3nc4c(C)c(C)ccc4cc3CN2CCN2CCOCC2)c1
CC50 [6]: 16.1 µM (active)

O=C(C(=O)N1CCOCC1)c1cn(Cc2ccc(F)cc2)c2ccccc12
IC50 [18]: > 20 µM (inactive)

O=c1c2sccc2[nH]c(=S)n1-c1ccccc1
IC50 [18]: > 20 µM (inactive)

O=C(CCN1CCN(C/C=C/c2ccccc2)CC1)Nc1ccc(Cl)cc1
IC50 [1]: 34.6 µM (active)

COCCSc1nnc(NC(=O)CCS(=O)(=O)Cc2ccccc2)s1
IC50 [1]: 45.5 µM (active)

O=C(Nc1ccccc1)N1CCN(c2nc(-c3ccccc3)ns2)CC1
IC50 [18]: > 20 µM (inactive)

CCOc1ccc(NC(=O)CN(C)C(=O)C2CC(=O)N(c3ccc4c(c3)OCCO4)C2)cc1OCC (configuration not stated)
EC50 [19]: > 150 µM (not active) | EC50 [20]: > 150 µM (not active) | EC50 [21]: > 150 µM (not active)

O=C(c1ccc(F)cc1)N1CCN2C(=O)c3ccccc3C12c1ccc(Cl)cc1 (configuration not stated)
CC50 [6]: 29 µM (active)

CN(C)c1ccc(/C=C2/NC(=O)NC2=O)cc1
IC50 [10]: 51.2 µM (active)

COc1cc(N(C)C)c([N+](=O)[O-])cc1C(=O)N1CCN(Cc2ccccc2)CC1
AC50 [15]: 12.8 µM (active)

O=C(OCC#CCSc1nnc(-c2ccccc2)o1)c1ccco1
IC50 [1]: 21.1 µM (active)

Cc1cc(C)c(S(=O)(=O)Nc2cccc(-n3cnnn3)c2)c(C)c1
EC50 [2]: 10.9 µM (active) | EC50 [3]: 29.6 µM (active)

COc1cc2cc(C(=O)Nc3ccc4c(c3)OCCO4)[nH]c2cc1OC
EC50 [22]: 0.907 µM (active) | AC50 [15]: 0.595 µM (active)

COC(=O)c1ccc(NCc2c(O)ccc(O)c2Br)cc1Cl
IC50 [10]: 57.6 µM (active)

Cc1ccc(-c2cc(C(=O)N/N=C/C=C/c3ccco3)c3ccccc3n2)cc1C
AC50 [15]: 1.63 µM (active)

CCCOC(=O)c1cc(NC(=O)/C=C/c2ccccc2)ccc1O
CC50 [6]: 20.4 µM (active)

COc1ccc(-n2nc3c(N4CCC(C(=O)NCC(C)c5ccccc5)CC4)nnc(C)c3c2C)cc1 (configuration not stated)
AC50 [5]: 3.25 µM (active) | AC50 [23]: 30.2 µM (active) | AC50 [24]: 36.7 µM (active)
